One test relates to CIN I or CIN II. Particulars: 10 mg/day, 154 cases, 6 months; cited from earlier work.
Test [1] deals with koilocytic atypia, mild dysplasia and moderate dysplasia. Particulars: 5 mg/day, 331 patients, six months; cited from earlier work.
Test [2] has as its system cervical dysplasia (CIN1, CIN2). Kind of test: Clinical test in cervical dysplasia CIN1 / CIN2. The class given is in vivo, human. Particulars: 2 months after administration; extracts 2 g/day, folic acid 15 mg/day; Yokunin 8, hot water 3, ethanol 3, folic acid 5, enzyme/fermentation 6, with folic acid 8 cases; untreated 0 of 15. As for the experimental part: According to the CIN classification, CIN1 and CIN2 correspond to mild dysplasia and moderate dysplasia, respectively, and CIN3 includes severe dysplasia and the above CIS. Here, the clinical effect of the pharmaceutical preparations of the present invention against the CIN1 and CIN2 is presented.
A test was conducted for cases, which had been diagnosed to be class III by cytological diagnosis and as having mild dysplasia or moderate dysplasia by histological diagnosis, and carefully followed up without conization, and for which informed consent had been obtained.
Further, the enzyme extract of Coix seeds with husks (3 cases)- or the fermentation extract (3 cases) (daily dose of 2 g of the respective extract ingredients)-administered group (6 cases), the enzyme extract of Coix seeds with husks (4 cases) or the fermentation extract (4 cases) (respective daily dose of 2 g as the extract ingredient) compounded with folic acid (15 mg/day)-administered group (8 cases) were observed. […] Test groups are as shown below. Each group was observed.
Each pharmaceutical preparation was administered over a long period (1 year), and cytological diagnosis and colposcopy were performed every 3 to 4 months.

The subject of test [3] is cervical carcinoma in situ (CIS). As to the kind of experiment: Clinical test in cervical carcinoma in situ (CIS), stage 0. The class given is in vivo, human. The conditions noted are these: 2 to 6 weeks of administration; extracts 2 g/day, folic acid 15 mg/day; group A 21, B 15 (8+7), C 8, D 12, E 11 cases; control 0 of 42. As for the experimental part:
A method for the clinical testing was performed in the manner described below under sufficient informed consent. Colposcopy was performed for patients who had been diagnosed to be class IV or V based on the cytobiosis of cervical cancer, portions of their lesions were subjected to biopsy, and then administration of various pharmaceutical preparations was immediately started. Test groups are as shown below. Each group was observed. […]

For the molecule `Nc1nc2ncc(CNc3ccc(C(=O)N[C@@H](CCC(=O)O)C(=O)O)cc3)nc2c(=O)[nH]1` [folic acid], the “effect compared with the group orally administered with placebo” value in the test with CIN I or CIN II is “no difference was also found”. Further, in test [1], the “improving effect compared with the group orally administered with placebo” value is reported as “no difference was found”. Further, the “cases showing improvement in both cytological diagnosis and colposcopy findings” value in test [2] is recorded as “None of the cases”. Moreover, in test [3], the “cases showing disappearance of carcinoma in situ in postoperative histological tests” value is on record as “none of the cases”.

The values are drawn from patent US20110293756A1, “PREVENTIVES OR REMEDIES FOR TUMOR OR HUMAN PAPILLOMAVIRAL DISEASE” (priority 2001, published 2011).
